Data reported in patent US20240067632A1, “WEE1 Degrading Compounds and Uses Thereof” (Bristol-Myers Squibb Company, priority 2022, published 2024).
Read-outs that look alike come from different tables or passages of the source.

Legend:
[1] = test system: MKN45 cells; assay: MKN45 cell proliferation assay (Cell-Titer-Glo, 120 h); type: cell-based; settings: for EC50: Homo sapiens, MKN-45, 120 h, Cell-Titer-Glo, read-out: MKN45 Cell Prolif. 120 hr (EC50); for MKN45 Cell Prolif. 120 hr (Ymin-Obs): minimal percent of DMSO control observed in the concentrations tested
How it was run: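 Growth inhibition was read as blank-corrected Cell-Titer-Glo luminescence expressed as percent DMSO control after 120 h at 37 C, 400 cells/well. Compounds tested in triplicate as 10-point half-log series from 1 or 10 uM, 0.1% DMSO; four-parameter fit gave EC50, and lowest observed percent control was reported as Ymin-obs.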

[2] = biological target: T1, WEE1 (Homo sapiens, UniProt P30291+Q96SW2); assay: WEE1-ePL degradation assay (LentiX-WEE1-ePL-GSPT1-ND cells, InCELL Hunter luminescence, 4 h); type: cell-based; settings: 293T-LentiX WEE1-ePL cells; for DC50: read-out: 293T-LentiX WEE1-ePL Degradation 4 hr (EC50)
T1 construct: C-terminal ePL-tagged (DiscoverX, Fremont, CA) full-length WEE1 expression construct; expressed in transfected cells; host or cells: LentiX-HEK293T (Invitrogen), lentiviral transduction; co-expressing GSPT1-GN (G576N, lacking the first 158 amino acids)
How it was run: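 LentiX-HEK293T cells stably expressing C-terminally ePL-tagged full-length WEE1 were treated with compounds in a 10-point, 3-fold dilution series starting at 1 uM or 10 uM for 4 h at 37 °C. Remaining WEE1-ePL was detected by InCELL Hunter luminescence, and EC50, Ymin and Ymax came from a four-parameter logistic fit against DMSO control.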

[3] = lower limit of the fit (0 = luciferase inhibitor, Ymax = DMSO control)
[4] = lower limit of the fit (Ymin=0 luciferase inhibitor, Ymax DMSO control)

Compound | EC50 ([1]; growth inhibition) | 293T-LentiX WEE1-ePL Degradation 4 hr (Ymin) [2, 3] | DC50 [2] | EC50 [1] | 293T-LentiX WEE1-ePL Degradation 4 hr (Ymin) [2, 4] | MKN45 Cell Prolif. 120 hr (Ymin-Obs) [1]
CNc1ccc2cc(CN3CC[C@H](Oc4ccc5c(c4)CN(C4CCC(=O)NC4=O)C5=O)C3)ncc2c1 (stereo partly drawn) [3-(5-{[(3S)-1-{[7-(methylamino)isoquinolin-3-yl]methyl}pyrrolidin-3-yl]oxy}-1-oxo-2,3-dihydro-1H-isoindol-2-yl)piperidine-2,6-dione] | 42.1 nM | 32 | 9.01 nM | – | – | 12.46
O=C1CCC(N2Cc3cc(O[C@H]4CCN(Cc5cc6ccc(N7CCOCC7)cc6cn5)C4)ccc3C2=O)C(=O)N1 (stereo partly drawn) [3-(5-{[(3S)-1-{[7-(morpholin-4-yl)isoquinolin-3-yl]methyl}pyrrolidin-3-yl]oxy}-1-oxo-2,3-dihydro-1H-isoindol-2-yl)piperidine-2,6-dione] | 3.17 nM | 36 | 3.82 nM | – | – | 6.72
O=C1CCC(N2Cc3cc(O[C@H]4CCN(Cc5cc(F)c6nc(C7CCOCC7)ccc6c5)C4)ccc3C2=O)C(=O)N1 (stereo partly drawn) [3-(5-{[(3S)-1-{[8-fluoro-2-(oxan-4-yl)quinolin-6-yl]methyl}pyrrolidin-3-yl]oxy}-1-oxo-2,3-dihydro-1H-isoindol-2-yl)piperidine-2,6-dione] | 1.09 nM | 28 | 1.24 nM | – | – | 7.098
C[C@@H]1CN(Cc2ccc3nc([C@@H]4CCOC(C)(C)C4)ccc3c2)C[C@H]1Oc1ccc2c(c1)CN(C1CCC(=O)NC1=O)C2=O (stereo partly drawn) [3-(5-{[(3S,4R)-1-({2-[(4R)-2,2-dimethyloxan-4-yl]quinolin-6-yl}methyl)-4-methylpyrrolidin-3-yl]oxy}-1-oxo-2,3-dihydro-1H-isoindol-2-yl) piperidine-2,6-dione] | 4.65 nM | 27.43 | 4.25 nM | – | – | 9.178
C[C@@H]1CN(Cc2ccc3nc([C@H]4CCOC(C)(C)C4)ccc3c2)C[C@H]1Oc1ccc2c(c1)CN(C1CCC(=O)NC1=O)C2=O (stereo partly drawn) [3-(5-{[(3S,4R)-1-({2-[(4S)-2,2-dimethyloxan-4-yl]quinolin-6-yl}methyl)-4-methylpyrrolidin-3-yl]oxy}-1-oxo-2,3-dihydro-1H-isoindol-2-yl)piperidine-2,6-dione] | 0.918 nM | 24.37 | 1.94 nM | – | – | 8.183
C[C@@H]1CN(Cc2cc(F)c3nc(C4CCOCC4)ccc3c2)C[C@H]1Oc1ccc2c(c1)CN(C1CCC(=O)NC1=O)C2=O (stereo partly drawn) [3-(5-{[(3S,4R)-1-{[8-fluoro-2-(oxan-4-yl)quinolin-6-yl]methyl}-4-methylpyrrolidin-3-yl]oxy}-1-oxo-2,3-dihydro-1H-isoindol-2-yl)piperidine-2,6-dione] | – | – | 1.13 nM | 1.49 nM | 27.42 | 7.781
C[C@@H]1CN(Cc2ccc3nc([C@@H]4CCOC4)ccc3c2)C[C@H]1Oc1ccc2c(c1)CN(C1CCC(=O)NC1=O)C2=O (stereo partly drawn) [3-(5-{[(3S,4R)-4-methyl-1-({2-[(3S)-oxolan-3-yl]quinolin-6-yl}methyl)pyrrolidin-3-yl]oxy}-1-oxo-2,3-dihydro-1H-isoindol-2-yl)piperidine-2,6-dione] | – | – | 1.95 nM | 3.67 nM | 33.96 | 10.01
C[C@@H]1CN(Cc2ccc3nc(C4CCOCC4)ccc3c2)C[C@H]1Oc1ccc2c(c1)CN(C1CCC(=O)NC1=O)C2=O (stereo partly drawn) [3-(5-{[(3S,4R)-4-methyl-1-{[2-(oxan-4-yl)quinolin-6-yl]methyl}pyrrolidin-3-yl]oxy}-1-oxo-2,3-dihydro-1H-isoindol-2-yl)piperidine-2,6-dione] | 3.52 nM | 27.68 | 2.71 nM | – | – | 9.683
COC[C@@H]1CN(Cc2ccc3nc(C4CCOCC4)ccc3c2)C[C@H]1Oc1ccc2c(c1)CN(C1CCC(=O)NC1=O)C2=O (stereo partly drawn) [3-(5-{[(3S,4S)-4-(methoxymethyl)-1-{[2-(oxan-4-yl)quinolin-6-yl]methyl}pyrrolidin-3-yl]oxy}-1-oxo-2,3-dihydro-1H-isoindol-2-yl)piperidine-2,6-dione] | – | – | 3.08 nM | 1.89 nM | 29.16 | 9.504
Cc1ccc2cc(CN3C[C@H](C)[C@H](Oc4ccc5c(c4)CN(C4CCC(=O)NC4=O)C5=O)C3)ccc2n1 (stereo partly drawn) [3-(5-{[(3S,4S)-4-methyl-1-[(2-methylquinolin-6-yl)methyl]pyrrolidin-3-yl]oxy}-1-oxo-2,3-dihydro-1H-isoindol-2-yl)piperidine-2,6-dione] | > 10000 nM | 88.5 | – | – | – | 85.96
O=C1CCC(N2Cc3cc(O[C@H]4CCN(Cc5cc6cc(F)ccc6cn5)C4)c(F)cc3C2=O)C(=O)N1 (stereo partly drawn) [3-(6-fluoro-5-{[(3S)-1-[(6-fluoroisoquinolin-3-yl)methyl]pyrrolidin-3-yl]oxy}-1-oxo-2,3-dihydro-1H-isoindol-2-yl)piperidine-2,6-dione] | 104 nM | 36 | 14.3 nM | – | – | 11.55

The next lines start with results.

EC50 ([1]; growth inhibition) | 293T-LentiX WEE1-ePL Degradation 4 hr (Ymin) [2, 3] | DC50 [2] | EC50 [1] | 293T-LentiX WEE1-ePL Degradation 4 hr (Ymin) [2, 4] | Compound | MKN45 Cell Prolif. 120 hr (Ymin-Obs) [1]
2.85 nM | 30 | 1.42 nM | – | – | COCc1ccc2cc(CN3CC[C@H](Oc4ccc5c(c4)CN(C4CCC(=O)NC4=O)C5=O)C3)ncc2c1 (stereo partly drawn) [3-(5-{[(3S)-1-{[7-(methoxymethyl)isoquinolin-3-yl]methyl}pyrrolidin-3-yl]oxy}-1-oxo-2,3-dihydro-1H-isoindol-2-yl)piperidine-2,6-dione] | 8.95
2.09 nM | 29.75 | 1.46 nM | – | – | O=C1CCC(N2Cc3cc(O[C@H]4CCN(Cc5cc6ccc(C7CCOCC7)cc6cn5)C4)ccc3C2=O)C(=O)N1 (stereo partly drawn) [3-(5-{[(3S)-1-{[7-(oxan-4-yl)isoquinolin-3-yl]methyl}pyrrolidin-3-yl]oxy}-1-oxo-2,3-dihydro-1H-isoindol-2-yl)piperidine-2,6-dione] | 8.822
– | – | 1.56 nM | 1.3 nM | 30.53 | C[C@@H]1CN(Cc2cc(F)c3nc([C@H]4CCOC4)ccc3c2)C[C@H]1Oc1ccc2c(c1)CN(C1CCC(=O)NC1=O)C2=O (stereo partly drawn) [3-(5-{[(3S,4R)-1-({8-fluoro-2-[(3R)-oxolan-3-yl]quinolin-6-yl}methyl)-4-methylpyrrolidin-3-yl]oxy}-1-oxo-2,3-dihydro-1H-isoindol-2-yl)piperidine-2,6-dione] | 8.038
– | – | 13.1 nM | 26.8 nM | 35.15 | O=C1CCC(N2Cc3cc(O[C@@H]4CN(Cc5ccc6nc(C7CCOCC7)ccc6c5)C[C@H]4C(F)(F)F)ccc3C2=O)C(=O)N1 (stereo partly drawn) [3-(5-{[(3S,4R)-1-{[2-(oxan-4-yl)quinolin-6-yl]methyl}-4-(trifluoromethyl)pyrrolidin-3-yl]oxy}-1-oxo-2,3-dihydro-1H-isoindol-2-yl)piperidine-2,6-dione] | 28.55
– | – | 1.41 nM | 2.32 nM | 33.41 | C[C@@H]1CN(Cc2ccc3nc([C@H]4CCOC4)ccc3c2)C[C@H]1Oc1ccc2c(c1)CN(C1CCC(=O)NC1=O)C2=O (stereo partly drawn) [3-(5-{[(3S,4R)-4-methyl-1-({2-[(3R)-oxolan-3-yl]quinolin-6-yl}methyl)pyrrolidin-3-yl]oxy}-1-oxo-2,3-dihydro-1H-isoindol-2-yl)piperidine-2,6-dione] | 10.26
17.5 nM | 33 | 3.1 nM | – | – | Cc1ccc2cc(CN3C[C@@H](C)[C@H](Oc4ccc5c(c4)CN(C4CCC(=O)NC4=O)C5=O)C3)ccc2n1 (stereo partly drawn) [3-(5-{[(3S,4R)-4-methyl-1-[(2-methylquinolin-6-yl)methyl]pyrrolidin-3-yl]oxy}-1-oxo-2,3-dihydro-1H-isoindol-2-yl)piperidine-2,6-dione] | 12.51
> 10000 nM | 88.5 | – | – | – | Cc1ccc2cc(CN3C[C@@H](Oc4ccc5c(c4)CN(C4CCC(=O)NC4=O)C5=O)C[C@H]3C)ccc2n1 (stereo partly drawn) [3-(5-{[(3S,5R)-5-methyl-1-[(2-methylquinolin-6-yl)methyl]pyrrolidin-3-yl]oxy}-1-oxo-2,3-dihydro-1H-isoindol-2-yl)piperidine-2,6-dione] | 80.29
> 10000 nM | 64.5 | 83.9 nM | – | – | Cc1ccc2cc(CN3C[C@@H](Oc4ccc5c(c4)CN(C4CCC(=O)NC4=O)C5=O)C[C@@H]3C)ccc2n1 (stereo partly drawn) [3-(5-{[(3S,5S)-5-methyl-1-[(2-methylquinolin-6-yl)methyl]pyrrolidin-3-yl]oxy}-1-oxo-2,3-dihydro-1H-isoindol-2-yl)piperidine-2,6-dione] | 82.25
